The target of assay [1] is T1, Adrenergic receptor alpha-1 (Rattus norvegicus, UniProt P15823+P23944+P43140).
T1 sequence (P15823 whole entry): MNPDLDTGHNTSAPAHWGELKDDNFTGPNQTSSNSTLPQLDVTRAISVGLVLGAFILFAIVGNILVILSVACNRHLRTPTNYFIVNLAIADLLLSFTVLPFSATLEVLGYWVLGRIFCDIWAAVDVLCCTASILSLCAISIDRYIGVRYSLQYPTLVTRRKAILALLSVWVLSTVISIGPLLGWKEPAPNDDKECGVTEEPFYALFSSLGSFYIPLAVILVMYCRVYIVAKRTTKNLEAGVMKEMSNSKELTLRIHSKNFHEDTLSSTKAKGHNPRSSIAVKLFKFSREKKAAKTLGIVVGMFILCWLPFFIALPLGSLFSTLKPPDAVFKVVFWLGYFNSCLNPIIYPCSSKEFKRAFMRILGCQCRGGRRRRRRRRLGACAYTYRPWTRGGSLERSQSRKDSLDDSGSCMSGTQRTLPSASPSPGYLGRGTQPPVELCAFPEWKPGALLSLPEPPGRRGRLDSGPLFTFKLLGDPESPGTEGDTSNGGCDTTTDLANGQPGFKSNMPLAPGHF
T1 sequence (P23944 whole entry): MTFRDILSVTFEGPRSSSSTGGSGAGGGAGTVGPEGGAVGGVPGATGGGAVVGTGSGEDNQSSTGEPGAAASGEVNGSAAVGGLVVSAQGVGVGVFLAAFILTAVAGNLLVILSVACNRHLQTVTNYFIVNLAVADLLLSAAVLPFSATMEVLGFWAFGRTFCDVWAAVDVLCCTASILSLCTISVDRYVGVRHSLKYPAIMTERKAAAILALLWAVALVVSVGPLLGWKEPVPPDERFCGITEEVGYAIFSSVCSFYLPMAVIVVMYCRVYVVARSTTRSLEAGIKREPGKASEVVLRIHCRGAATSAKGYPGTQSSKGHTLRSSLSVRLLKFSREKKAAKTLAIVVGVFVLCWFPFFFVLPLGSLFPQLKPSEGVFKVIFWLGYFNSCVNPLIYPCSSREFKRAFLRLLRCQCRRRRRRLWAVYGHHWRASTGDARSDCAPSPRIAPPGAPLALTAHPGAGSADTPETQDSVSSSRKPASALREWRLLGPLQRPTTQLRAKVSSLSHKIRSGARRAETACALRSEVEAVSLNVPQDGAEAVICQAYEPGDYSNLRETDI
T1 sequence (P43140 whole entry): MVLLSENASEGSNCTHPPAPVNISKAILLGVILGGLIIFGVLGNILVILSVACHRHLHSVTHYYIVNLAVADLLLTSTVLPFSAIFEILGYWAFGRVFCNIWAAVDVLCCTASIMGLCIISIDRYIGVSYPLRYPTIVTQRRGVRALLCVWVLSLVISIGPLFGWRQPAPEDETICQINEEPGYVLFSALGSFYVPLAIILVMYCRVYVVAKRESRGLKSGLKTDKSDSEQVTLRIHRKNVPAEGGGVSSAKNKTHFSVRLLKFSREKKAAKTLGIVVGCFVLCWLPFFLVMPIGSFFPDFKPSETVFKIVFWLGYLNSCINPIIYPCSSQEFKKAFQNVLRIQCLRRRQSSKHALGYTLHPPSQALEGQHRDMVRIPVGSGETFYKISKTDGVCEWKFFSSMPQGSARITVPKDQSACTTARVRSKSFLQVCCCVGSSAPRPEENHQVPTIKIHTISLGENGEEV
The experiment in a line: Alpha-1 adrenergic receptor binding affinity of the compound, value taken from literature. The class given is protein assay.

The target in assay [2] is T1, Adrenergic receptor alpha-1. The experiment in a line: Alpha-1-adrenergic receptor binding affinity of the compound, value taken from literature. The class given is protein assay.
The target of assay [3] is Adrenergic receptor alpha-2 (Rattus norvegicus) (UniProt P22086+P19328+P22909). Briefly: Ratio of binding affinity towards Alpha-2 and alpha-1 adrenergic receptor. The class given is protein assay.
Assay [4] deals with T1, Adrenergic receptor alpha-1. The experiment in a line: Binding affinity towards alpha-1 adrenergic receptor in rat cortex membrane using [3H]-prazosin radioligand. In kind it is cell membranes.
The target of assay [5] is T2, Adrenergic receptor alpha-2 (Rattus norvegicus, UniProt P22086+P19328+P22909).
T2 sequence (P22086 whole entry): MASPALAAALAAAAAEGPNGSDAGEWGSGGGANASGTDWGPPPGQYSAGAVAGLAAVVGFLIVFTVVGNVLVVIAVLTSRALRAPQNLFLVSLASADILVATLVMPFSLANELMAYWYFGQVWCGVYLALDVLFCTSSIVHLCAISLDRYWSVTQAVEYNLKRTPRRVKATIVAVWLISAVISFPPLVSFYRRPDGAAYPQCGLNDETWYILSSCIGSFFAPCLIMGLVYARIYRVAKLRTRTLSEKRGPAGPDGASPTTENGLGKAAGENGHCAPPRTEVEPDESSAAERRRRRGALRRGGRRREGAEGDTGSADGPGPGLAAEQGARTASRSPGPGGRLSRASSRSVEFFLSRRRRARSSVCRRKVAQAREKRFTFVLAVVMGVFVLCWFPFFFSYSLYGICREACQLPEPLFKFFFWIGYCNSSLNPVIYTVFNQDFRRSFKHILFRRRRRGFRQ
T2 sequence (P19328 whole entry): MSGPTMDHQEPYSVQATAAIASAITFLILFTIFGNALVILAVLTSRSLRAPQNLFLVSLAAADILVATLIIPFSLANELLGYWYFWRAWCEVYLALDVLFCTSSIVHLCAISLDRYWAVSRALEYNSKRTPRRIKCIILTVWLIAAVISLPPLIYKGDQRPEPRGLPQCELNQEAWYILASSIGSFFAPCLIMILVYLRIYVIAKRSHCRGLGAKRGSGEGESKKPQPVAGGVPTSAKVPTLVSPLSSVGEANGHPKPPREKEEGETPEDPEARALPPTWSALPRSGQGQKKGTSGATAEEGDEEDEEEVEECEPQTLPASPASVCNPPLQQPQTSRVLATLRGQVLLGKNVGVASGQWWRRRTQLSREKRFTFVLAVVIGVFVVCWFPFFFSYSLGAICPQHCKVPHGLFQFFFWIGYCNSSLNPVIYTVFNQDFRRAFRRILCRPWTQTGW
T2 sequence (P22909 whole entry): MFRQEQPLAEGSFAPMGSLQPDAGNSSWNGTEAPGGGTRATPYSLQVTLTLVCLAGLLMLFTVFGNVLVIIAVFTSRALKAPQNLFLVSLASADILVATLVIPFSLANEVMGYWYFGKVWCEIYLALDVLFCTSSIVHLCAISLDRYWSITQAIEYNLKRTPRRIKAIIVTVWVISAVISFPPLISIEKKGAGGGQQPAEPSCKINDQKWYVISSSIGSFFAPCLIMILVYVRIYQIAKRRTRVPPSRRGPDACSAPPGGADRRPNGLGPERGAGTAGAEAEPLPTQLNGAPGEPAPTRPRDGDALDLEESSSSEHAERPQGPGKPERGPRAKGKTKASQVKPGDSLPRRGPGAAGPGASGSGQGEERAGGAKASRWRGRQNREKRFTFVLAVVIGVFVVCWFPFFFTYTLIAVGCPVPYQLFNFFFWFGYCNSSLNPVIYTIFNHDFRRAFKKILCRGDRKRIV
Briefly: Binding affinity towards alpha-2 adrenergic receptor in rat cortex membrane using [3H]rauwolscine radioligand. In kind it is cell membranes.

One may read the Ki as the equilibrium dissociation constant of an inhibitor or competing ligand from its target. The low end stands for a stronger hold on the target, the high end for a looser hold on the target. Consider `COc1ccccc1N1CCN(CCNC(=O)C23CC4CC(CC(C4)C2)C3)CC1`, for which, in assay [1], the Ki was 17.5 nM. Still for that read-out and setting: the value for `COc1ccccc1N1CCN(CCCCN2C(=O)CCC2=O)CC1` was 11.9 nM; that for `CCC(=O)NCCN1CCN(c2ccccc2OC)CC1` was 258 nM. `COc1ccccc1N1CCN(CCn2c(=O)[nH]c3c([nH]c4ccccc43)c2=O)CC1` yielded a Ki in assay [2] of 0.21 nM. For the compound `COc1ccccc1N1CCN(CCCCN2C(=O)CCc3ccccc32)CC1`, the inhibition constant (Ki) in assay [1] is given as 0.34 nM. Still for that read-out and setting: the value for `O=C1CCc2ccccc2N1CCCCN1CCN(c2ncccn2)CC1` was 374 nM. With `COc1ccccc1OCCN1CCN(c2cnn(CCN3CCN(c4ccccc4Cl)CC3)c(=O)c2Cl)CC1`, the Ratio in assay [3] stood at 5. Besides, the Ki in assay [4] is listed as 58.8 nM; in assay [5], 292.3 nM.

`COc1ccccc1N1CCN(CCCCCCCn2nc(N3CCN(C(=O)c4ccco4)CC3)ccc2=O)CC1`: the Ratio in assay [3] amounted to 1.7. Also, the inhibition constant Ki in assay [4] was 54.7 nM; in assay [5] it was 96 nM.
